Data taken from patent US7425577B2, “Lipase-colipase inhibitor” (Forskarpatent 1 SYD AB, priority 2003, dated 2008).

Biological target: T1, Lipase and colipase, purified from human pancreatic gland (Homo sapiens, UniProt P04118+P16233)
T1 construct: Lipase, Purified from Human Pancreatic Gland; Colipase, Purified from Human Pancreatic Gland; from tissue; host or cells: human pancreatic gland
T1 sequence (P16233 17-465): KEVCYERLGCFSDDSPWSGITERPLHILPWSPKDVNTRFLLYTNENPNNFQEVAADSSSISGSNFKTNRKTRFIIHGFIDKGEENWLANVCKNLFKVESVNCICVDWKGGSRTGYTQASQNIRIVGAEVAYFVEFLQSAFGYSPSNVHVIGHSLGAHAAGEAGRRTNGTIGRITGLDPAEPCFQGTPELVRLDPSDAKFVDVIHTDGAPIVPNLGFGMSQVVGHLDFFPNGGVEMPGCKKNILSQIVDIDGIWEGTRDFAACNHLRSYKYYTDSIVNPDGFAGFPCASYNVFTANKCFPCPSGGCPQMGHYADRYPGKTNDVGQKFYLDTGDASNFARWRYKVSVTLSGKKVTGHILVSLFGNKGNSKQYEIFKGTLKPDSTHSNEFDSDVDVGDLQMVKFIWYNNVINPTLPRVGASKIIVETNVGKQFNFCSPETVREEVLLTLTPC
T1 sequence (P04118 23-112): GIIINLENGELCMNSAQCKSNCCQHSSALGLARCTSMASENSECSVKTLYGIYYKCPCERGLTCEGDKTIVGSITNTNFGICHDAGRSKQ
Assay: Determination of lipolysis by colipase/lipase (pH-stat, tributyrine emulsion with NaTDC)
Assay type: biochemical
Description: Determination of Lipolysis by Colipase/Lipase
The most important enzyme in the gastro-intestinal tract being responsible for the hydrolysis of lipids/fats in the gastro-intestinal tract is lipase, pancreatic lipase, together with its protein cofactor colipase. These are two proteins, which are secreted from the pancreatic gland. […] The colipase binds to lipase in a molar 1:1 complex and then moves the complex to the triglyceride surface. In the binding between lipase and colipase hydrogen bonds are present, between arg38 of the colipase and ser343 of the lipase and from glu15 of the colipase and the asn241 of the lipase molecules. In the binding of colipase to the substrate (the lipids/fat) there are both hydrophobic bonds as well as ion-ion bonds present. By an isolated lack of colipase it has been shown that colipase has a decisive role for the lipolysis in the gastro-intestinal tract of humans. Pure lipase and colipase have been produced in accordance with the following.
Lipase, Purified from Human Pancreatic Gland
Colipase, Purified from Human Pancreatic Gland
0.5 ml of tributyrine is mixed with 15 ml of a buffer containing 1 mM CaCl2, 150 mM NaCl, 2 mM tris-maleate, pH 7.0 and 4 mM NaTDC (sodium taurodeoxycholate). An emulsion is obtained by continuous stirring. pH is titrated by means of a pH-state, where 0.1 N NaOH is added automatically to keep an constant pH. 10 μl of lipase is added from a stock solution containing 70 units of lipase/ml, followed by 10 μl of colipase from a stock solution containing 1 mg colipase/ml. An activity is registered which is determined to be 100%. An addition of an inhibitor is then made. A new assay is used for every concentration, prepared in the same way. The inhibition is registered as percentage of control. A dose-response plot is obtained for the compounds having an inhibiting ability.

Compound: CCCCCCCCCCCCCCN(C)C [N,N-dimethyl tetradecyl amine]
- Activity Inhibitor (amount of inhibitor 1.04 μmol, control activity 0.226): 0.179 µmol/min
- Activity Inhibitor (amount of inhibitor 2.07 μmol, control activity 0.243): 0.121 µmol/min
- Activity Inhibitor (amount of inhibitor 4.14 μmol, control activity 0.223): 0.056 µmol/min
- Activity Inhibitor (amount of inhibitor 7.25 μmol, control activity 0.257): 0.045 µmol/min
- Activity Inhibitor (amount of inhibitor 10.35 μmol, control activity 0.282): 0.033 µmol/min
- Activity Inhibitor (amount of inhibitor 15.53 μmol, control activity 0.256): 0 µmol/min

Compound: CCCCCCCCOCCN(C)C [dimethylaminoethyl octyl ether]
- Activity Inhibitor (amount of inhibitor 2.49 μmol, control activity 0.304): 0.249 µmol/min
- Activity Inhibitor (amount of inhibitor 4.98 μmol, control activity 0.319): 0.215 µmol/min
- Activity Inhibitor (amount of inhibitor 8.71 μmol, control activity 0.314): 0.136 µmol/min
- Activity Inhibitor (amount of inhibitor 12.44 μmol, control activity 0.356): 0.069 µmol/min
- Activity Inhibitor (amount of inhibitor 18.66 μmol, control activity 0.32): 0.053 µmol/min
- Activity Inhibitor (amount of inhibitor 21.89 μmol, control activity 0.293): 0.035 µmol/min
- Activity Inhibitor (amount of inhibitor 24.88 μmol, control activity 0.278): 0 µmol/min

Compound: CCCCCCCCCCCCOCCOCCOCCOCCOCCOCCN(C)C [dimethylaminoethyl pentaethyleneglycol dodecyl ether]
- Activity Inhibitor (amount of inhibitor 0.26 μmol, control activity 0.307): 0.273 µmol/min
- Activity Inhibitor (amount of inhibitor 0.52 μmol, control activity 0.29): 0.236 µmol/min
- Activity Inhibitor (amount of inhibitor 1.05 μmol, control activity 0.302): 0.222 µmol/min
- Activity Inhibitor (amount of inhibitor 2.62 μmol, control activity 0.299): 0.13 µmol/min
- Activity Inhibitor (amount of inhibitor 5.23 μmol, control activity 0.314): 0.083 µmol/min
- Activity Inhibitor (amount of inhibitor 7.85 μmol, control activity 0.312): 0.04 µmol/min
- Activity Inhibitor (amount of inhibitor 10.46 μmol, control activity 0.3): 0.015 µmol/min
- Activity Inhibitor (amount of inhibitor 15.69 μmol, control activity 0.319): 0.009 µmol/min
- Activity Inhibitor (amount of inhibitor 20.92 μmol, control activity 0.282): 0 µmol/min

Compound: CCCCCCCCCCCCOCCOCCOCCOCCOCCOCCOCCOCCOCCN(CCC)CCC [dipropylaminoethyl octaethyleneglycol dodecyl ether]
- Activity Inhibitor (amount of inhibitor 0.2 μmol, control activity 0.256): 0.256 µmol/min
- Activity Inhibitor (amount of inhibitor 0.4 μmol, control activity 0.28): 0.256 µmol/min
- Activity Inhibitor (amount of inhibitor 0.8 μmol, control activity 0.259): 0.209 µmol/min
- Activity Inhibitor (amount of inhibitor 2.01 μmol, control activity 0.25): 0.136 µmol/min
- Activity Inhibitor (amount of inhibitor 4.02 μmol, control activity 0.246): 0.096 µmol/min
- Activity Inhibitor (amount of inhibitor 8.04 μmol, control activity 0.244): 0.033 µmol/min
- Activity Inhibitor (amount of inhibitor 12.06 μmol, control activity 0.252): 0.011 µmol/min
- Activity Inhibitor (amount of inhibitor 16.08 μmol, control activity 0.247): 0 µmol/min
